Test results from PubChem BioAssay (NCI).
Several values for one entry are separate records, joined by “and”; a condition that tells them apart may be missing. Identical values can stand only once.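 Following 48 hours of exposure in 96-well plates, responses at five concentrations were used to interpolate endpoints linearly. GI50: concentration for 50% inhibition of growth. TGI: concentration producing complete growth inhibition.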

Legend:
Assay in all cases: DTP human tumour cell line panel, 48 h
NCI-H460 lung = test system: NCI-H460 lung
SNB-19 CNS = test system: SNB-19 CNS
MOLT-4 leukemia = test system: MOLT-4 leukemia
MDA-MB-435 = test system: MDA-MB-435
OVCAR-5 ovarian = test system: OVCAR-5 ovarian
HOP-92 NSCLC = test system: HOP-92 NSCLC
SK-MEL-28 melanoma = test system: SK-MEL-28 melanoma
HCT-116 colon = test system: HCT-116 colon
KM12 colon = test system: KM12 colon
NCI-H23 lung = test system: NCI-H23 lung

SMILES	GI50 (NCI-H460 lung)	TGI (NCI-H460 lung)	GI50 (SNB-19 CNS)	TGI (SNB-19 CNS)	GI50 (MOLT-4 leukemia)	TGI (MOLT-4 leukemia)	GI50 (MDA-MB-435)	TGI (MDA-MB-435)	GI50 (OVCAR-5 ovarian)	TGI (OVCAR-5 ovarian)	GI50 (HOP-92 NSCLC)	TGI (HOP-92 NSCLC)	GI50 (SK-MEL-28 melanoma)	TGI (SK-MEL-28 melanoma)	GI50 (HCT-116 colon)	TGI (HCT-116 colon)	GI50 (KM12 colon)	TGI (KM12 colon)	GI50 (NCI-H23 lung)	TGI (NCI-H23 lung)
CO/N=C(\COc1ccc2c(c1)oc(=O)c1cc(OC)ccc12)c1cccc(OC)c1	> 100 µM	> 100 µM	> 100 µM	> 100 µM	> 100 µM	> 100 µM	> 100 µM	> 100 µM	> 100 µM	> 100 µM	> 100 µM	> 100 µM	> 100 µM	> 100 µM	> 100 µM	> 100 µM	> 100 µM	> 100 µM	> 100 µM	> 100 µM
c1ccc2c(Nc3ccc(Oc4ccc(Nc5c6ccccc6nc6ccccc56)cc4)cc3)c3ccccc3nc2c1	0.346 µM	1.38 µM and 5.93 µM	0.333 µM	1.11 µM	0.186 µM	0.843 µM	–	0.4 µM	–	1.06 µM	0.285 µM	1.5 µM and 4.69 µM	1.44 µM	–	0.155 µM and 0.0325 µM	0.289 µM and 0.117 µM	0.21 µM and 0.187 µM	0.441 µM and 0.376 µM	–	0.596 µM
CC(C)=CCc1ccc(O)c(=O)cc1C(C)C	0.42 µM	> 33.1 µM	0.735 µM	> 100 µM	0.394 µM	> 100 µM	0.814 µM	> 100 µM	3.39 µM	> 100 µM	1.32 µM	65.3 µM	0.917 µM	> 100 µM	0.469 µM	> 100 µM	0.641 µM	> 100 µM	0.701 µM	> 51.3 µM
Cc1[nH]n(-c2ccc(S(=O)(=O)O)cc2)c(=O)c1N=Nc1ccccc1	–	> 100 µM	–	> 100 µM	–	> 100 µM	–	> 100 µM	–	> 100 µM	–	> 100 µM	–	> 100 µM	–	> 100 µM	–	> 100 µM	–	> 100 µM
CN1C(=O)c2cc([N+](=O)[O-])ccc2[C@H]2C(=O)c3cc4c(cc3[C@H]21)OCO4	0.0285 µM	0.195 µM	0.22 µM	> 28.2 µM	0.145 µM	> 100 µM	0.167 µM	2.72 µM	0.299 µM	0.926 µM	1.49 µM	–	0.25 µM	> 32.4 µM	0.0141 µM	0.128 µM	0.337 µM	–	0.21 µM	0.796 µM
O=C(Nc1cccc([N+](=O)[O-])c1)c1ccc2ccccc2c1O	3.69 µM	> 100 µM	4.05 µM	> 85.4 µM	3.4 µM	> 46.5 µM	3.47 µM	> 100 µM	20.6 µM	> 100 µM	1.77 µM	6.71 µM	6.03 µM	> 100 µM	5.27 µM	> 100 µM	4.41 µM	> 81.2 µM	3.79 µM	> 89.8 µM
O=C1Nc2ccccc2/C1=C/c1ccccc1	–	38.5 µM	–	30 µM	–	57.5 µM	–	33.2 µM	–	34.5 µM	–	25.5 µM	–	44.4 µM	–	27 µM	–	33.2 µM	–	42.7 µM
NC(N)=N/N=C(/c1ccccc1)c1ccc(Cl)cc1	9.93 µM	44 µM	87.2 µM	> 100 µM	5.45 µM	> 100 µM	2.74 µM	9.27 µM	47.3 µM	> 100 µM	4.09 µM	90.5 µM	8.03 µM	> 100 µM	4.71 µM	63.6 µM	5.53 µM	> 100 µM	34 µM	> 100 µM
Nc1nc(Cl)c(N=Nc2ccc(Cl)cc2)c(NCC2(CO)CC(OCc3ccccc3)C2)n1 (stereo unspecified)	7.43 µM and 29.4 µM and 3.85 µM	86.1 µM and > 100 µM and 17.7 µM	26.7 µM and > 100 µM and 18.3 µM	> 100 µM and 47.6 µM	3.39 µM and 9.61 µM and 3.56 µM	38.6 µM and > 100 µM and > 48.4 µM	–	14.2 µM and > 100 µM and 59.2 µM	13.4 µM and > 100 µM and 12 µM	> 100 µM and 30.2 µM	1.83 µM and 6.13 µM and 2.33 µM	–	–	> 100 µM and 33.4 µM	7.37 µM and 40.9 µM and 8.76 µM	> 100 µM and 32.4 µM	20 µM and 41.3 µM and 7.74 µM	> 100 µM and 28 µM	3.76 µM and 25 µM and 3.09 µM	24.9 µM and > 100 µM and 13.9 µM
O=C1c2cccc3cccc(c23)C(=O)N1CCCCN1CCN(CCCCOc2ccc(-c3nc4ccc(N5CCOCC5)cc4[nH]3)cc2)CC1	> 100 µM	> 100 µM	> 100 µM	> 100 µM	3.76 µM	> 100 µM	> 100 µM	> 100 µM	> 100 µM	> 100 µM	> 100 µM	> 100 µM	66 µM	> 100 µM	> 100 µM	> 100 µM	> 100 µM	> 100 µM	> 100 µM	> 100 µM
Cn1ccnc1C(=O)/C=C/c1ccc(C(=O)Nc2ccccc2O)cc1	1.67 µM	5.6 µM	2.6 µM	11.5 µM	2.38 µM	8.18 µM	2.22 µM	4.85 µM	2.39 µM	7.09 µM	2.11 µM	6.68 µM	2.11 µM	5.07 µM	0.866 µM	2.64 µM	1.96 µM	4.44 µM	2.91 µM	9.67 µM
O=C(CC(O)c1ccncc1)c1ccccc1 (stereo unspecified)	27.1 µM	89.2 µM	34.1 µM	> 100 µM	22.2 µM	79.4 µM	20.8 µM	56.5 µM	37.6 µM	> 100 µM	16.1 µM	69.6 µM	21.9 µM	70.4 µM	19.3 µM	54.6 µM	33.7 µM	> 100 µM	42.8 µM	> 100 µM
COc1cc(/C=C/C(=O)C(C(=O)/C=C/c2ccc(OC(=O)CCNc3nnc(C)s3)c(OC)c2)C(=O)CCNc2nnc(C)s2)ccc1OC(=O)CCNc1nnc(C)s1	2.2 µM	4.7 µM	4.79 µM	18.3 µM	1.64 µM	3.89 µM	2.06 µM	6.98 µM	2.89 µM	7.12 µM	2.48 µM	8.4 µM	1.75 µM	4.02 µM	1.65 µM	3.81 µM	1.63 µM	3.18 µM	3.19 µM	18.4 µM
